The values below come from patent US20260094269A1, “DIAGNOSIS AND MONITORING OF NEURODEGENERATIVE DISEASES” (MACQUARIE UNIVERSITY, priority 2019, published 2026).

The subject of this test is monocytes. The test can be described thus: Hyperspectral autofluorescence imaging of monocytes isolated from treated ALS / motor neuron disease patients (LDA projection, response score). Type of test: in vivo, human. From the text: In the particular implementation presented here the “response vectors” were obtained using the following procedure. First, a discriminatory model was developed using a subset of the data based on two groups, the first group comprising the controls C1 C4 and two sets of patient data P2 and P6, while the second group comprising P1, P3, and P4. Second, all data from FIG. 4 was projected on the direction joining the centres of the two cell data clusters for the two groups defined above and a one-dimensional response vector was determined by a projection of each original cell vector from FIG. 4. These one-dimensional response vectors for all cells were presented in a box plot format (each symbol indicates a response vector for a different cell).
The box plots in FIGS. 5 and 6 comprise rectangles with three shades of grey. The thin line in the centre of the rectangle has the darkest shade of grey and represents the median value; the two stripes immediately adjacent to the centre line have the lightest shade of grey and represent the 95% confidence region (1.96×SEM); and the two stripes nearest to the ends of the rectangle have an intermediate shade of grey and represent the first standard deviation. If the light-grey regions of a cluster are not horizontally overlapping, one can be confident of having measured a difference. The values in the plot were shifted by a value of 1.3358, just for sake of placing the controls about zero, although this is an arbitrary shift and, in other examples, the values may be shifted by other amounts. Clusters may be classified according to their mean values: high values may be attributed to “diseased and unresponsive” state, intermediate values may be attributed to “normal”, and low values compared to normal may be interpreted as “drug affected”.
Blood samples were collected using Vacutainer® CPT™ Cell Preparation Tube (BD Australia, catalogue: 362760). 4 mls of whole blood from controls and MND patients were collected into the CPT tube via veinpuncture technique, using the standard technique for BD Vacutainer® Evacuated blood collection tubes. After collection, the tube/blood samples were centrifuged at room temperature (18-25° C.) in a horizontal rotor centrifuge for a minimum of 20 minutes at 1500 to 1800 RCF. After centrifugation, mononuclear cells and platelets located in a whitish layer (Buffy layer just under the plasma layer) were collected using a Pasteur pipette and transferred to a 15 mL size conical centrifuge tube.
Monocytes were isolated from collected buffy layer using a Pan Monocyte Isolation Kit, human (Miltenyi Biotec, catalogue: 130-096-537). The Monocyte Isolation Kit is an indirect magnetic labelling system for the isolation of untouched monocytes from human peripheral blood mononuclear cells (PBMCs). Non-monocytes, i.e. T cells, NK cells, B cells, dendritic cells and basophils, are indirectly magnetically labeled using a cocktail of biotin-conjugated antibodies against CD3, CD7, […], CD19, CD56, CD123 and Glycophorin A, and Anti-Biotin MicroBeads. Isolation of highly pure unlabelled monocytes is achieved by depletion of the magnetically labeled cells. […]

Molecules are shown by their SMILES.

Take `Nc1nc2ccc(OC(F)(F)F)cc2s1` [Riluzole]: the “range of response scores compared with healthy controls” value (eight other ALS patients (Patients 3-10), FIG. 6) is given as “much wider range of response scores than healthy controls”.
Regarding `CN=C([S-])N/N=C(C)/C(C)=N/NC([S-])=NC.[Cu+2]` [CuATSM, Copper ATSM], the “clustering of monocytes (autofluorescence spectral space) relative to healthy control” value (ALS Patient 1, before (T0) vs three weeks after (T1) start of treatment, FIG. 5(a)) is reported as “normalised towards the healthy cells”. The “response score (one-dimensional projection), longitudinal testing” value (ALS Patients 1 and 2, T0 vs T1-T3 over the course of treatment, FIG. 5(c)) is on record as “statistically strong drug responses from time T1 onwards”. The “position of treated patients' cell data in LDA projection (control space vs patient space)” value (FIG. 4, all patients and controls C1-C4) is listed as “appear in the control space or to the left hand side”. The “position of patient cell data in LDA projection over consecutive tests” value (FIG. 4, patient (P5), Test1 to Test4) was “progressively moving left (and less component 2) into the control/treated space”.
